Results taken from patent publication US11608323B2 (SYNGENTA LIMITED, priority 2013, dated 2023).

What was measured:
Type in all cases: in vivo
ABUTH [1] = experiment: Pre-emergence herbicidal activity, glasshouse pot test; conditions: rate 1000 g/Ha, evaluated after 13 days, scale 0-5
Procedure: (§1) Seeds of a variety of test species were sown in standard soil in pots. After cultivation for one day (pre-emergence) under controlled conditions in a glasshouse (at 24/16° C., day/night; 14 hours light; 65% humidity), the plants were sprayed with an aqueous spray solution derived from the formulation of the technical active ingredient in acetone/water (50:50) solution containing 0.5% Tween 20 (polyoxyethelyene sorbitan monolaurate, CAS RN 9005-64-5). The test plants were then grown in a glasshouse under controlled conditions (at 24/16° C., day/night; 14 hours light; 65% humidity) and watered twice daily. After 13 days, the test was evaluated (5=total damage to plant; 0=no damage to plant).

AMARE [2] = experiment: as above; conditions: rate 1000 g/Ha, evaluated after 13 days, scale 0-5
Procedure: as §1

ECHCG [3] = experiment: as above; conditions: rate 1000 g/Ha, evaluated after 13 days, scale 0-5
Procedure: as §1

SETFA [4] = experiment: as above; conditions: rate 1000 g/Ha, evaluated after 13 days, scale 0-5
Procedure: as §1

ZEAMX [5] = experiment: as above; conditions: rate 1000 g/Ha, evaluated after 13 days, scale 0-5
Procedure: as §1

ABUTH [6] = experiment: Post-emergence herbicidal activity, glasshouse pot test; conditions: Abutilon theophrasti; application post-emergence; rate 1000 g/Ha; evaluated after 13 days
Procedure: (§2) Seeds of a variety of test species were sown in standard soil in pots. After 8 days cultivation (post-emergence) under controlled conditions in a glasshouse (at 24/16° C., day/night; 14 hours light; 65% humidity), the plants were sprayed with an aqueous spray solution derived from the formulation of the technical active ingredient in acetone/water (50:50) solution containing 0.5% Tween 20 (polyoxyethelyene sorbitan monolaurate, CAS RN 9005-64-5). The test plants were then grown in a glasshouse under controlled conditions (at 24/16° C., day/night; 14 hours light; 65% humidity) and watered twice daily. After 13 days, the test was evaluated (5=total damage to plant; 0=no damage to plant).

AMARE [7] = experiment: as above; conditions: Amaranthus retroflexus; application post-emergence; rate 1000 g/Ha; evaluated after 13 days
Procedure: as §2

ECHCG [8] = experiment: as above; conditions: Echinochloa crus-galli; application post-emergence; rate 1000 g/Ha; evaluated after 13 days
Procedure: as §2

SETFA [9] = experiment: as above; conditions: Setaria faberi; application post-emergence; rate 1000 g/Ha; evaluated after 13 days
Procedure: as §2

ZEAMX [10] = experiment: as above; conditions: Zea mays; application post-emergence; rate 1000 g/Ha; evaluated after 13 days
Procedure: as §2

SMILES	ABUTH damage score, application pre-emergence (ABUTH [1])	AMARE damage score, application pre-emergence (AMARE [2])	ECHCG damage score, application pre-emergence (ECHCG [3])	SETFA damage score, application pre-emergence (SETFA [4])	ZEAMX damage score, application pre-emergence (ZEAMX [5])	Post-emergence herbicidal activity ABUTH (damage score 0-5) (ABUTH [6])	Post-emergence herbicidal activity AMARE (damage score 0-5) (AMARE [7])	Post-emergence herbicidal activity ECHCG (damage score 0-5) (ECHCG [8])	Post-emergence herbicidal activity SETFA (damage score 0-5) (SETFA [9])	Post-emergence herbicidal activity ZEAMX (damage score 0-5) (ZEAMX [10])
COC(C)(C)c1ccnc(N2C(=O)N(C)C(C)C2O)c1 (stereo not drawn) [Compound A89]	5	5	4	4	2	5	5	5	5	3
CC1C(O)N(c2cc(C(F)(F)F)c(C(=O)NC(C)(C)C)cn2)C(=O)N1C (stereo not drawn) [Compound A65]	5	5	5	5	3	5	5	5	5	5
CN1C(=O)N(c2cc(C(F)(F)F)ccn2)C(O)C1CC(F)(F)F (stereo not drawn) [Compound A68]	0	0	0	0	0	0	0	0	0	0
CC1C(O)N(c2cc(C(F)(F)F)ccn2)C(=O)N1O (stereo not drawn) [Compound A64]	2	5	4	3	2	4	5	5	4	1
CC1C(O)N(c2ccc(C(F)(F)F)cn2)C(=O)N1C (stereo not drawn) [Compound A74]	5	5	4	4	3	5	5	4	5	3
CON1C(=O)N(c2ccc(C(=O)NC(C)(C)C)cn2)C(O)C1C (stereo not drawn) [Compound A66]	5	5	5	4	2	5	5	5	5	5
CC1C(O)N(c2cc(C(F)F)ccn2)C(=O)N1C (stereo not drawn) [Compound A84]	5	5	5	5	3	5	5	5	5	4
COCN1C(=O)N(c2cc(C(F)(F)F)ccn2)C(O)C1C (stereo not drawn) [Compound A76]	5	5	3	4	2	5	5	4	4	1
CON1C(=O)N(c2ccc(C(F)(F)F)cn2)C(O)C1C (stereo not drawn) [Compound A80]	5	5	5	4	2	5	5	5	5	4
C#CCN1C(=O)N(c2cc(C(F)(F)F)ccn2)C(O)C1C (stereo not drawn) [Compound A87]	5	5	4	4	3	5	5	5	5	4
CON1C(=O)N(c2cc(C(F)(F)C(F)(F)F)ccn2)C(O)C1C (stereo not drawn) [Compound A73]	5	5	4	5	3	5	5	5	5	3
C=CC1C(O)N(c2cc(C(F)(F)F)ccn2)C(=O)N1C (stereo not drawn) [Compound A31]	5	5	5	5	2	5	5	5	5	4
